Each molecule was assayed on HeLa cells (assay: Cell-based pharmacodynamic assay (CellTiter-Glo proliferation inhibition), HeLa). Details: human cervical cancer HeLa cells; 72 hours incubation; CellTiter-Glo luminescence; read-out: IC50 against HeLa cells.
Description: Complete media such as RPMI 1640 (Gibco, A1049101), EMEM (ATCC, 30-2003), DMEM (Gibco, C11995500CP), McCoy's 5A (Gibco, 16600082), and F-12K (ATCC, 30-2004) were prepared by supplementing with varying concentrations of FBS (Biological Industries, 04-002-1A) and 1% Penicillin-Streptomycin (Gibco, 15140122) and was thoroughly mixed. Tumor cell lines including HeLa (ATCC, CCL-2; EMEM + 10% FBS), TOV-21G (Cobioer, CBP60292; 1:1 mixture of MCDB 105 and Medium 199 + 15% FBS), OVCAR-3 (ATCC, HTB-161; RPMI 1640 + 20% FBS + 0.01 mg/ml bovine insulin), SK-OV-3 (ATCC, HTB-77; McCoy's 5A + 10% FBS), A2780 (Cobioer, CBP60283; RPMI 1640 + 10% FBS), OC316 (Cobioer, CBP60620; RPMI 1640 + 10% FBS), HuH-7 (Cobioer, CBP60202; DMEM + 10% FBS), SNU-398 (ATCC, CRL-2233; RPMI 1640 + 10% FBS), NCI-H2286 (ATCC, CRL-5938; RPMI 1640 + 5% FBS), NCI-H82 (ATCC, HTB-175; RPMI 1640 + 10% FBS), A549 (ATCC, CCL-185; F-12K + 10% FBS), SK-MEL-3 (ATCC, HTB-69; McCoy's 5A + 15% FBS), PSN-1 (Cobioer, CBP61215; RPMI 1640 + 10% FBS), LoVo (ATCC, CCL-229; F-12K + 10% FBS), DLD-1 (ATCC, CCL-221; RPMI 1640 + 10% FBS), HCT-15 (ATCC, CCL-225; RPMI 1640 + 10% FBS), A498 (ATCC, HTB-44; EMEM + 10% FBS), LNCaP (ATCC, CRL-1740; RPMI 1640 + 10% FBS), SNU-1 (ATCC, CRL-5971; RPMI 1640 + 10% FBS), SCC-9 (Cobioer, CBP60428; DMEM/F12 (1:1) + 10% FBS + 0.5 mM sodium pyruvate + 400 ng/ml hydrocortisone), SU-DHL-5 (ATCC, CRL-2958; RPMI 1640 + 10% FBS), Toledo (ATCC, CRL-2631; RPMI 1640 + 10% FBS), and SJCRH30 (ATCC, CRL-2061; RPMI 1640 + 10% FBS) were thawed. Cells were passaged approximately twice, and those in good growth condition (typically passages 4-6) were selected for experiments. The medium was aspirated, and the cells were washed once with 0.25% trypsin (Invitrogen, 25200-072). The waste liquid was discarded, and 3 mL of fresh trypsin was added to the culture flask for digestion. When the cells began to detach, 9 mL of complete medium was added to neutralize the trypsin digestion, and the mixture was gently mixed. The cell suspension was transferred to a centrifuge tube using a pipette and centrifuged at 1000 rpm for 5 minutes. The supernatant was discarded, and 5 mL of medium was added to the centrifuge tube to gently resuspend the cells evenly. The cell concentration was adjusted to 1×10^4/mL-3×10^4/mL using a cell counter (Beckman Coulter, Vi-cellTM XR). The cell suspension was added to a 96-well plate (Corning, 3903) at 100 µL/well. The plate was labeled with details such as cell name, seeding density, and date, and then placed in a CO2 incubator (Thermo, Thermo 3111) overnight. Test compounds were prepared as 20 mM stock solutions in DMSO (Sigma, D4540-1L) and added to the corresponding cell wells using an HPD300 automated dispenser according to the designed layout. The plates were incubated in a 37°C, 5% CO2 incubator for 72 hours. CellTiter-Glo Buffer was thawed at room temperature. The lyophilized CellTiter-Glo substrate was equilibrated to room temperature. The CellTiter-Glo Buffer was added to the CellTiter-Glo substrate and thoroughly mixed. The cell plates were removed and equilibrated to room temperature, and 50 µL of the mixed CellTiter-Glo reagent was added to each well. The plates were protected from light and shaken for 10 minutes, followed by incubation for 10 minutes. The plates were placed in an Enspire reader (luminescence measurement time: 0.5 s) to record luminescence results. The inhibition rate was calculated using the following formula: Inhibition rate (%) = (1 - (RLU_compound - RLU_blank) / (RLU_DMSO - RLU_blank)) × 100%. Dose-response curves were plotted using XLFit to calculate IC50 values. A four-parameter model was used: [fit = (A + ((B - A) / (1 + ((C/x) ^ D)))]. The test results for HeLa cells are shown in Table 1. Table 1: IC50 values of some test compounds against human cervical cancer HeLa cells
`CCOC(=O)c1cccc2c1c1c(n2C(=O)/C=C/C(=O)OC)C(=O)CCC1` [Compound C15] gave an IC50 of no more than 0.2 µM. `CCCCCOC(=O)n1c2c(c3c(C(=O)OCC)cccc31)CCCC2=O` [Compound C16] was tested, and the IC50 was no more than 0.2 µM. With `CCOC(=O)c1cccc2c1c1c(n2C(=O)C2CCOCC2)C(=O)CCC1` [Compound C17] the IC50 was no more than 0.2 µM. Work on `CCOC(=O)c1cccc2c1c1c(n2C(=O)OC2CCN(C)CC2)C(=O)CCC1` [Compound C18] yielded an IC50 of no more than 0.2 µM. With `CCOC(=O)c1cccc2c1c1c(n2C(=O)c2ccc(F)cc2)C(=O)CCC1` [Compound C19] the IC50 was no more than 0.2 µM. `CCOC(=O)c1cccc2c1c1c(n2C(=O)c2ccc(Cl)cc2)C(=O)CCC1` [Compound C20] gave an IC50 of no more than 0.2 µM. Molecule `CCOC(=O)c1cccc2c1c1c(n2C(=O)c2ccc(OC)cc2)C(=O)CCC1` [Compound C21] has an IC50 of no more than 0.2 µM. With `C#Cc1cccc(C(=O)n2c3c(c4c(C(=O)OCC)cccc42)CCCC3=O)c1` [Compound C22] the IC50 was no more than 0.2 µM. With `CCOC(=O)c1cccc2c1c1c(n2C(=O)c2ccc(C)cc2)C(=O)CCC1` [Compound C23] the IC50 was no more than 0.2 µM. Molecule `CCOC(=O)c1cccc2c1c1c(n2C(=O)C2CCN(C)CC2)C(=O)CCC1` [Compound C24] has an IC50 of no more than 0.2 µM. `CCOC(=O)c1cccc2c1c1c(n2C(=O)c2ccccc2OC)C(=O)CCC1` [Compound C25] gave an IC50 of no more than 0.2 µM. `CCOC(=O)c1cccc2c1c1c(n2C(=O)c2ncoc2C)C(=O)CCC1` [Compound C26] was tested, and the IC50 was no more than 0.2 µM. With `CCOC(=O)c1cccc2c1c1c(n2C(=O)c2ccc(C)cn2)C(=O)CCC1` [Compound C27] the IC50 was no more than 0.2 µM. Molecule `CCOC(=O)c1cccc2c1c1c(n2C(=O)/C=C/c2ccc(O)c(OC)c2)C(=O)CCC1` [Compound C29] has an IC50 of no more than 0.2 µM. Molecule `CCOC(=O)c1cccc2c1c1c(n2C(=O)C2OC2C)C(=O)CCC1` (stereo not drawn) [Compound C30] has an IC50 of no more than 0.2 µM. Work on `CCOC(=O)c1cccc2c1c1c(n2C(=O)c2ccccc2O)C(=O)CCC1` [Compound C31] yielded an IC50 of no more than 0.2 µM. In the case of `CCOC(=O)c1cccc2c1c1c(n2C(=O)c2cc(C)cc(OCC)n2)C(=O)CCC1` [Compound C32], the IC50 is reported as no more than 0.2 µM. `CCOC(=O)c1cccc2c1c1c(n2C(=O)CN2CCN(C)CC2)C(=O)CCC1` [Compound C34] gave an IC50 of no more than 0.2 µM. `CCOC(=O)c1cccc2c1c1c(n2C(=O)CC2CCOCC2)C(=O)CCC1` [Compound C35] gave an IC50 of no more than 0.2 µM. For `CCOC(=O)c1cccc2c1c1c(n2C(=O)C2(c3ccc4c(c3)OC(F)(F)O4)CC2)C(=O)CCC1` [Compound C36], the IC50 was no more than 0.2 µM. `CCOC(=O)c1cccc2c1c1c(n2C(=O)C2COC2)C(=O)CCC1` [Compound C38] showed an IC50 of no more than 0.2 µM. With `CCOC(=O)c1cccc2c1c1c(n2C(=O)CCCCCN)C(=O)CCC1` [Compound C42] the IC50 was no more than 0.2 µM. `CCOC(=O)c1cccc2c1c1c(n2C(=O)C#CC2(C)COC2)C(=O)CCC1` [Compound C43] gave an IC50 of no more than 0.2 µM. `CCOCCOCC(=O)n1c2c(c3c(C(=O)OCC)cccc31)CCCC2=O` [Compound C44] gave an IC50 of no more than 0.2 µM. Work on `CCOC(=O)c1cccc2c1c1c(n2C(=O)C2(C)CCOCC2)C(=O)CCC1` [Compound C45] yielded an IC50 of no more than 0.2 µM. Molecule `CCOC(=O)c1cccc2c1c1c(n2C(=O)C2(F)CCOCC2)C(=O)CCC1` [Compound C49] has an IC50 of no more than 0.2 µM. `CCOC(=O)c1cccc2c1c1c(n2C(=O)CCCN(C)C)C(=O)CCC1` [Compound C50] showed an IC50 of no more than 0.2 µM. Work on `CCOC(=O)c1cccc2c1c1c(n2C(=O)CCCCC(F)F)C(=O)CCC1` [Compound C51] yielded an IC50 of no more than 0.2 µM. `CCCCCC(=O)n1c2c(c3c(-c4cnn(C(C)C)c4)cccc31)CCCC2=O` [Compound C52] showed an IC50 of no more than 0.2 µM. Molecule `CCOC(=O)c1cccc2c1c1c(n2C(=O)CCCCCO)C(=O)CCC1` [Compound C55] has an IC50 of no more than 0.2 µM. For `CCOC(=O)c1cccc2c1c1c(n2C(=O)C2CC3(CC(C(=O)O)C3)C2)C(=O)CCC1` (stereo not drawn) [Compound C56], the IC50 was no more than 0.2 µM. With `CCOC(=O)c1cccc2c1c1c(n2C(=O)c2c[nH]cc2C(F)(F)F)C(=O)CCC1` [Compound C57] the IC50 was no more than 0.5 µM. For `CCOC(=O)c1cccc2c1c1c(n2C(=O)[C@@H](C)OCc2ccccc2)C(=O)CCC1` [Compound C58], the IC50 was no more than 0.2 µM. `CCOC(=O)c1cccc2c1c1c(n2C(=O)/C=C/c2ccc(OC)c(OC)c2)C(=O)CCC1` [Compound C59] showed an IC50 of no more than 0.2 µM. For `Cn1cc(-c2cccc3c2c2c(n3C(=O)C3CC(F)(F)C3)C(=O)CCC2)cn1` [Compound C60], the IC50 was no more than 0.2 µM. `Cc1ccc2[nH]c3c(c2c1)CCCC3=NCC(C)(C)O` [Compound E03] was tested, and the IC50 was no more than 0.5 µM. `Cc1ccc2[nH]c3c(c2c1)CCCC3=N[C@@H]1CCNC1` [Compound E04R] gave an IC50 of no more than 0.2 µM. For `Cc1ccc2[nH]c3c(c2c1)CCCC3=N[C@@H]1CCN(C)C1` [Compound E05R], the IC50 was no more than 0.2 µM. Molecule `Cc1ccc2[nH]c3c(c2c1)CCCC3=NCC1(C)NC(=O)NC1=O` (stereo not drawn) [Compound E07] has an IC50 of no more than 0.2 µM. Work on `Cc1ccc2[nH]c3c(c2c1)CCCC3=NC1(CO)CCC1` [Compound E08] yielded an IC50 of no more than 0.2 µM. In the case of `Cc1ccc2[nH]c3c(c2c1)CCCC3=NC1CC(C(N)=O)C1` (stereo not drawn) [Compound E09], the IC50 is reported as no more than 0.5 µM. `Cc1ccc2[nH]c3c(c2c1)CCCC3=NCC(=O)OC(C)(C)C` [Compound E10] showed an IC50 of no more than 0.2 µM. `Cc1ccc2[nH]c3c(c2c1)CCCC3=NCCNCCO` [Compound E11] showed an IC50 of no more than 0.2 µM. In the case of `Cc1ccc2[nH]c3c(c2c1)CCCC3=NC1CCN(C)CC1` [Compound E13], the IC50 is reported as no more than 0.2 µM. Molecule `Cc1ccc2[nH]c3c(c2c1)CCCC3=NC(CO)CO` [Compound E14] has an IC50 of no more than 0.2 µM. `COC(=O)c1cccc2[nH]c3c(c12)CCCC3=NCC(=O)OC(C)(C)C` [Compound E29] gave an IC50 of no more than 0.2 µM. Molecule `COC(=O)c1cccc2[nH]c3c(c12)CCCC3=NCCO` [Compound E30] has an IC50 of no more than 0.2 µM. For `Cc1ccc2[nH]c3c(c2c1)CCCC3=NCCOCCO` [Compound E31], the IC50 was no more than 0.2 µM. Work on `[2H]C([2H])([2H])c1ccc2[nH]c3c(c2c1)CCCC3=NCC(=O)OC(C)(C)C` [Compound E32] yielded an IC50 of no more than 0.2 µM. `COc1ccc2[nH]c3c(c2c1)CCCC3=NCC(=O)OC(C)(C)C` [Compound E33] was tested, and the IC50 was no more than 0.5 µM. In the case of `COC(=O)c1ccc2[nH]c3c(c2c1)CCCC3=NCC(=O)OC(C)(C)C` [Compound E34], the IC50 is reported as no more than 0.2 µM. Work on `COc1ccc2[nH]c3c(c2n1)CCCC3=NCC(=O)OC(C)(C)C` [Compound E35] yielded an IC50 of no more than 0.2 µM. Work on `COC(=O)c1ccc2[nH]c3c(c2c1)CCCC3=NCCO` [Compound E36] yielded an IC50 of no more than 0.2 µM. `COc1ccc2[nH]c3c(c2n1)CCCC3=NCCO` [Compound E37] showed an IC50 of no more than 0.2 µM. Molecule `Cc1ccc2[nH]c3c(c2c1)CCC/C3=N\[C@@H](Cc1ccccc1)C(=O)OC(C)(C)C` [Compound E38] has an IC50 of no more than 0.2 µM. `Cc1ccc2[nH]c3c(c2c1)CCCC3=NC(CC(N)=O)C(=O)OC(C)(C)C` (stereo not drawn) [Compound E39] was tested, and the IC50 was no more than 0.2 µM. `Cc1ccc2[nH]c3c(c2c1)CCCC3=NC(Cc1ccc(O)cc1)C(=O)OC(C)(C)C` (stereo not drawn) [Compound E40] was tested, and the IC50 was no more than 0.2 µM.
